As usually defined, the pIC50 is the negative decadic logarithm of the IC50, by convention in mol/L.

pIC50: −log10 of the molar value.

Chain of SHP2 (Q06124 whole entry): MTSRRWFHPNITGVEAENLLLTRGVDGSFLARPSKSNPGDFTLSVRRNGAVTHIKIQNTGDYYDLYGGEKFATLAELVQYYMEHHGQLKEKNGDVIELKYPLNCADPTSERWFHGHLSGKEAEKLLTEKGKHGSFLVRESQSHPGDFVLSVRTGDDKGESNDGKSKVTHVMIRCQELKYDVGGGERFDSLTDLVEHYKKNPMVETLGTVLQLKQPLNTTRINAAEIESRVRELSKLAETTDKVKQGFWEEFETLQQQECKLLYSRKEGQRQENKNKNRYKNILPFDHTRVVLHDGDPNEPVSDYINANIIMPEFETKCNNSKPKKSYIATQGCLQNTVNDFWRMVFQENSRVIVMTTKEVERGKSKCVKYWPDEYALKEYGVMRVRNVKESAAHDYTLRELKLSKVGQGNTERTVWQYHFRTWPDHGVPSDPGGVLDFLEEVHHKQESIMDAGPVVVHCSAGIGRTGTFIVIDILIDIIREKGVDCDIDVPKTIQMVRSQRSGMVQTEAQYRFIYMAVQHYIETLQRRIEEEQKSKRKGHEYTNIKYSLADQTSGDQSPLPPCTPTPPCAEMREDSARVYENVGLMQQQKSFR

For one assay, the target named is SHP2 (Homo sapiens (Human), UniProt Q06124). Kind of assay: SHP2 Allosteric Inhibition Assay. The class given is biochemical. Particulars: 0.5 nM SHP2 with 0.5 μM peptide IRS1_pY1172(dPEG8)pY1222; surrogate substrate DiFMUP; 25° C.; read-out: IC50. The source says:
SHP2 Allosteric Inhibition Assay
SHP2 is allosterically activated through binding of bis-tyrosyl-phosphorylated peptides to its Src Homology 2 (SH2) domains. The latter activation step leads to the release of the auto-inhibitory interface of SHP2, which in turn renders the SHP2 protein tyrosine phosphatase (PTP) active and available for substrate recognition and reaction catalysis. The catalytic activity of SHP2 was monitored using the surrogate substrate DiFMUP in a prompt fluorescence assay format.
After 30-60 minutes incubation at 25° C., the surrogate substrate DiFMUP (Invitrogen, cat #D6567) was added to the reaction and incubated at 25° C. for 30 minutes. […] The inhibitor dose response curves were analyzed using normalized IC50 regression curve fitting with control based normalization.
`Cn1c(N2CCC(C)(CN)CC2)nc2[nH]cc(-c3cccc(Cl)c3Cl)c2c1=O` [Example 5, 2-(4-(aminomethyl)-4-methylpiperidin-1-yl)-5-(2,3-dichlorophenyl)-3-methyl-3H-pyrrolo[2,3-d]pyrimidin-4(7H)-one]: the pIC50 was 7.00.

For `CC1(CN)CCN(c2cc3[nH]cc(-c4cccc(Cl)c4Cl)c3c(=O)[nH]2)CC1` [Example 11, 6-(4-(aminomethyl)-4-methylpiperidin-1-yl)-3-(2,3-dichlorophenyl)-1,5-dihydro-4H-pyrrolo[3,2-c]pyridin-4-one], the pIC50 is 7.07.

Regarding `C[C@@H]1OCC2(CCN(c3nc4[nH]nc(-c5ccnc(N)c5Cl)c4c(=O)n3C)CC2)[C@@H]1N` [Example 8, 3-(2-amino-3-chloropyridin-4-yl)-6-((3S,4S)-4-amino-3-methyl-2-oxa-8-azaspiro[4.5]decan-8-yl)-5-methyl-2,5-dihydro-4H-pyrazolo[3,4-d]pyrimidin-4-one], the pIC50 is 7.44.

Take `CC(C)Nc1nccc(-c2n[nH]c3nc(N4CCC5(CC4)CO[C@@H](C)[C@H]5N)n(C)c(=O)c23)c1Cl` [Example 7, 6-((3S,4S)-4-amino-3-methyl-2-oxa-8-azaspiro[4.5]decan-8-yl)-3-(3-chloro-2-(isopropylamino)pyridin-4-yl)-5-methyl-1,5-dihydro-4H-pyrazolo[3,4-d]pyrimidin-4-one]: the negative-log IC50 (pIC50) is 7.47.

With `C[C@@H]1OCC2(CCN(c3nc4[nH]nc(-c5cc(N)nc(Cl)c5Cl)c4c(=O)n3C)CC2)[C@@H]1N` [Example 6, 3-(6-amino-2,3-dichloropyridin-4-yl)-6-((3S,4S)-4-amino-3-methyl-2-oxa-8-azaspiro[4.5]decan-8-yl)-5-methyl-1,5-dihydro-4H-pyrazolo[3,4-d]pyrimidin-4-one], the pIC50 was 6.42.

For `CC1(CN)CCN(c2nc3[nH]cc(-c4cccc(Cl)c4Cl)c3c(=O)[nH]2)CC1` [Example 3, 2-(4-(aminomethyl)-4-methylpiperidin-1-yl)-5-(2,3-dichlorophenyl)-3,7-dihydro-4H-pyrrolo[2,3-d]pyrimidin-4-one], the pIC50 is 7.21.

With `COc1nccc(-c2c[nH]c3nc(N4CCC5(CC4)CO[C@@H](C)[C@H]5N)n(C)c(=O)c23)c1Cl` [Example 9, 2-((3S,4S)-4-amino-3-methyl-2-oxa-8-azaspiro[4.5]decan-8-yl)-5-(3-chloro-2-methoxypyridin-4-yl)-3-methyl-3,7-dihydro-4H-pyrrolo[2,3-d]pyrimidin-4-one], the pIC50 is 7.59.

Still in this assay, the particulars now being: 0.5 nM SHP2 with 0.5 μM peptide IRS1_pY1172(dPEG8)pY1222; surrogate substrate DiFMUP; 25° C.; read-out: SHP2 IC50.
Consider `Cc1nc(N)ccc1-c1n[nH]c2nc(N3CCC4(CC3)C[C@@H](C)C[C@H]4N)n(C)c(=O)c12` [Example 48, 3-(6-amino-2-methylpyridin-3-yl)-6-((1R,3R)-1-amino-3-methyl-8-azaspiro[4.5]decan-8-yl)-5-methyl-1,5-dihydro-4H-pyrazolo[3,4-d]pyrimidin-4-one], for which the pIC50 is 7.80.

As for `COc1nccc(-c2n[nH]c3nc(N4CCC5(CC4)CO[C@@H](C)[C@H]5N)n(C)c(=O)c23)c1Cl` [Example 18, 6-((3S,4S)-4-amino-3-methyl-2-oxa-8-azaspiro[4.5]decan-8-yl)-3-(3-chloro-2-methoxypyridin-4-yl)-5-methyl-1,5-dihydro-4H-pyrazolo[3,4-d]pyrimidin-4-one], the pIC50 was 7.37.

In the case of `CNc1nccc(-c2n[nH]c3nc(N4CCC5(CC4)CO[C@@H](C)[C@H]5N)n(C)c(=O)c23)c1Cl` [Example 32, 6-((3S,4S)-4-amino-3-methyl-2-oxa-8-azaspiro[4.5]decan-8-yl)-3-(3-chloro-2-(methylamino)pyridin-4-yl)-5-methyl-1,5-dihydro-4H-pyrazolo[3,4-d]pyrimidin-4-one], the pIC50 was 7.27.

As for `Cn1c(N2CCC3(CCC[C@H]3N)CC2)nc2[nH]nc(-c3ccccc3)c2c1=O` [Example 19, (R)-6-(1-amino-8-azaspiro[4.5]decan-8-yl)-5-methyl-3-phenyl-1,5-dihydro-4H-pyrazolo[3,4-d]pyrimidin-4-one], the pIC50 was 7.34.

Take `Cc1nc(N(C)C)ccc1-c1n[nH]c2nc(N3CCC4(CC3)CO[C@@H](C)[C@H]4N)n(C)c(=O)c12` [Example 40, 6-((3S,4S)-4-amino-3-methyl-2-oxa-8-azaspiro[4.5]decan-8-yl)-3-(6-(dimethylamino)-2-methylpyridin-3-yl)-5-methyl-1,5-dihydro-4H-pyrazolo[3,4-d]pyrimidin-4-one]: the pIC50 is 7.05.

Turning to `Cn1c(N2CCC3(CC2)COC[C@H]3N)nc2[nH]nc(-c3ccnc(Cl)c3Cl)c2c1=O` [Example 21, (S)-6-(4-amino-2-oxa-8-azaspiro[4.5]decan-8-yl)-3-(2,3-dichloropyridin-4-yl)-5-methyl-1,5-dihydro-4H-pyrazolo[3,4-d]pyrimidin-4-one], the pIC50 is 7.27.

Consider `Cn1c(N2CCC3(CC2)CC(F)(F)C[C@H]3N)nc2[nH]nc(-c3ccnc(NC4CC4)c3Cl)c2c1=O` [Example 50, (R)-6-(1-amino-3,3-difluoro-8-azaspiro[4.5]decan-8-yl)-3-(3-chloro-2-(cyclopropylamino)pyridin-4-yl)-5-methyl-1,5-dihydro-4H-pyrazolo[3,4-d]pyrimidin-4-one], for which the pIC50 is 7.46.

`C[C@@H]1OCC2(CCN(c3nc4[nH]nc(-c5ccc6c(c5)CCO6)c4c(=O)n3C)CC2)[C@@H]1N` [Example 56, 6-((3S,4S)-4-amino-3-methyl-2-oxa-8-azaspiro[4.5]decan-8-yl)-3-(2,3-dihydrobenzofuran-5-yl)-5-methyl-1,5-dihydro-4H-pyrazolo[3,4-d]pyrimidin-4-one]: the pIC50 was 7.02.

As to `Cn1c(N2CCC(C)(CN)CC2)nc2[nH]nc(-c3ccncc3Cl)c2c1=O` [Example 28, 6-(4-(aminomethyl)-4-methylpiperidin-1-yl)-3-(3-chloropyridin-4-yl)-5-methyl-1,5-dihydro-4H-pyrazolo[3,4-d]pyrimidin-4-one], the pIC50 is 6.51.

As to `C[C@@H]1OCC2(CCN(c3cnc4c(-c5ccnc(Cl)c5Cl)n[nH]c4n3)CC2)[C@@H]1N` [Example 85, (3S,4S)-8-(3-(2,3-dichloropyridin-4-yl)-1H-pyrazolo[3,4-b]pyrazin-6-yl)-3-methyl-2-oxa-8-azaspiro[4.5]decan-4-amine], the negative logarithm of the IC50 (pIC50) was 7.17.

On to `Cc1nc(N)ccc1-c1n[nH]c2nc(N3CCC4(CC3)CO[C@@H](C)[C@H]4N)n(C)c(=O)c12` [Example 47, 3-(6-amino-2-methylpyridin-3-yl)-6-((3S,4S)-4-amino-3-methyl-2-oxa-8-azaspiro[4.5]decan-8-yl)-5-methyl-1,5-dihydro-4H-pyrazolo[3,4-d]pyrimidin-4-one], for which the pIC50 was 7.43.

On to `CCNc1nccc(-c2n[nH]c3nc(N4CCC5(CC4)CO[C@@H](C)[C@H]5N)n(C)c(=O)c23)c1Cl` [Example 72, 6-((3S,4S)-4-amino-3-methyl-2-oxa-8-azaspiro[4.5]decan-8-yl)-3-(3-chloro-2-(ethylamino)pyridin-4-yl)-5-methyl-1,5-dihydro-4H-pyrazolo[3,4-d]pyrimidin-4-one], for which the pIC50 is 7.33.

For the compound `C[C@@H]1OCC2(CCN(c3nc4[nH]nc(-c5c(F)ccc(Cl)c5Cl)c4c(=O)n3C)CC2)[C@@H]1N` [Example 27, 6-((3S,4S)-4-amino-3-methyl-2-oxa-8-azaspiro[4.5]decan-8-yl)-3-(2,3-dichloro-6-fluorophenyl)-5-methyl-1,5-dihydro-4H-pyrazolo[3,4-d]pyrimidin-4-one], the negative-log IC50 (pIC50) is 6.35.

With `Cn1c(N2CCC(C)(CN)CC2)nc2[nH]nc(-c3cccc(C(F)(F)F)c3Cl)c2c1=O` [Example 26, 6-(4-(aminomethyl)-4-methylpiperidin-1-yl)-3-(2-chloro-3-(trifluoromethyl)phenyl)-5-methyl-1,5-dihydro-4H-pyrazolo[3,4-d]pyrimidin-4-one], the pIC50 was 6.90.

With `Cc1c(-c2n[nH]c3nc(N4CCC5(CC4)CO[C@@H](C)[C@H]5N)n(C)c(=O)c23)ccnc1Cl` [Example 78, 6-((3S,4S)-4-amino-3-methyl-2-oxa-8-azaspiro[4.5]decan-8-yl)-3-(2-chloro-3-methylpyridin-4-yl)-5-methyl-1,5-dihydro-4H-pyrazolo[3,4-d]pyrimidin-4-one], the pIC50 is 7.77.

Consider `CNc1nccc(-c2n[nH]c3nc(N4CCC5(CC4)CO[C@@H](C)[C@H]5N)n(C)c(=O)c23)c1Br` [Example 35, 6-((3S,4S)-4-amino-3-methyl-2-oxa-8-azaspiro[4.5]decan-8-yl)-3-(3-bromo-2(methylamino)pyridin-4-yl)-5-methyl-1,5-dihydro-4H-pyrazolo[3,4-d]pyrimidin-4-one], for which the pIC50 is 7.47.

As to `C[C@@H]1OCC2(CCN(c3nc4[nH]nc(-c5ccnc(NC6CCC6)c5Cl)c4c(=O)n3C)CC2)[C@@H]1N` [Example 29, 6-((3S,4S)-4-amino-3-methyl-2-oxa-8-azaspiro[4.5]decan-8-yl)-3-(3-chloro-2-(cyclobutylamino)pyridin-4-yl)-5-methyl-1,5-dihydro-4H-pyrazolo[3,4-d]pyrimidin-4-one], the pIC50 was 7.46.

With `Cn1c(N2CCC3(CC2)COC[C@H]3N)nc2[nH]nc(-c3ccnc(N)c3Cl)c2c1=O` [Example 23, (S)-3-(2-amino-3-chloropyridin-4-yl)-6-(4-amino-2-oxa-8-azaspiro[4.5]decan-8-yl)-5-methyl-1,5-dihydro-4H-pyrazolo[3,4-d]pyrimidin-4-one], the negative-log IC50 (pIC50) was 7.19.

In the case of `C[C@@H]1OCC2(CCN(c3nc4[nH]nc(-c5ccccc5F)c4c(=O)n3C)CC2)[C@@H]1N` [Example 63, 6-((3S,4S)-4-amino-3-methyl-2-oxa-8-azaspiro[4.5]decan-8-yl)-3-(2-fluorophenyl)-5-methyl-1,5-dihydro-4H-pyrazolo[3,4-d]pyrimidin-4-one], the pIC50 is 7.64.

The values are drawn from patent US10975080B2, “Compounds and compositions for inhibiting the activity of SHP2” (NOVARTIS AG, priority 2015, dated 2021).
